Source: patent publication US10179143B2, “Anti-viral azide containing compounds” (LIFE TECHNOLOGIES CORPORATION, priority 2010, dated 2019)

Tests used:
[1] = tested on: Nuclear-GFP BacMam 2.0 Virus; test: Infectivity of PTM analog-labeled Nuclear-GFP BacMam 2.0 virus in U2-OS cells (nuclear-GFP expression); type: cell-based, baculovirus; conditions: BacMam virus labeled in Sf9 insect cells with 50 μM analog for 4 days; 20 or 50 uL virus on U2-OS cells overnight; FIG. 5
Source text: Inhibition of insect cell baculovirus infectivity with azido fatty acid analogs: The BacMam system uses a modified insect cell virus (baculovirus) as a vehicle to efficiently deliver and express genes in mammalian cells. A Nuclear-GFP BacMam 2.0 expression system (Invitrogen, C10602) was used as a model to determine if PTM analog labeling of the virus would affect mammalian cell infectivity. Viruses were labeled with various PTM analogs and used to infect mammalian cells. Infectivity was determined by the expression of nuclear-GFP, as viral entry into the cell is required for expression of GFP protein. […]
Characterization of BacMam virus production: To verify, quantitate, and normalize the amount of enriched viruses obtained from insect cell supernatants, samples of each virus were lysed in SDS sample preparation buffer (SPB), sonicated with a probe tip sonicator, and heated at 90C to completely dissolve the viral proteins. Viral protein concentrations of the lysates were then determined. […]
Mammalian cell infection protocol: To determine if the PTM analog-labeled viruses retain the ability to infect mammalian cells, 50,000 U2-OS cells (human osteosarcoma cell line) were plated onto a 6 well-chamber glass bottom plate. […] The following day cells were imaged on AMG EVOS fluorescence microscope at 10× or 20× magnification using both white light and GFP filters (FIG. 5). […]

HIV = test: Luciferase reporter assay of infectivity of azide-labeled HIV on TZM/BI reporter cells; type: cell-based, HIVNL4-3; conditions: virus produced in CEMx174 cells spiked with the compound (fatty acids 50-100 μM, sugars 20-40 μM); normalized to p24; 12 hours on TZM/BI; single cycle replication system; FIGS. 3 and 4
Method: CEMx174 cells were transfected with HIVNL4-3 in a T-150 flask and the virus production was monitored by reverse transcriptase activity until peak virus production occurred (usually 7 to 9 days post transfection). Prior to transfection, the CEMx174 cells were spiked with the following azide-modified biomolecules: 15-azidopentadecanoic acid (50-100 μM), 12-azidododecanoic acid (50-100 μM), tetraacetylated N-azidoacetylgalactosamine (20-40 μM), and tetraacetylated N-azidoacetyl-D-mannosamine (20-40 μM).
Labeled virus was also obtained from the transfected cells. More specifically, virus-containing supernatants were collected and virus was purified through 20% sucrose as previously described (Graham, D.R. et al., Proteomics 2008, 8:4919-30). The purified virus was then mixed with the CLICK-IT® detection reagent, tetramethylrhodamine (TAMRA) alkyne and the CLICK-IT® Protein Reaction Buffer Kit (Invitrogen, Carlsbad, Calif.). Virus samples were run on a one-dimensional gel to reveal azide-labeled viral proteins (FIG. 2). […]
To examine the effect of the azide-modified biomolecules on the innate biology of the virus, the azide-labeled virus from the transfected cells was isolated and tested in cell infection studies. […] Viral infectivity was determined by measuring cellular luciferase activities with two different luciferase reagents.

SMILES | nuclear-GFP expression in U2-OS cells (viral entry) [1] | impact on the infectivity of the virus (cellular luciferase activities) (HIV)
[N-]=[N+]=NCCCCCCCCCCCCCCC(=O)O [15-azidopentadecanoic acid] | no nuclear-GFP expression | 
[N-]=[N+]=NCCCCCCCCCCCC(=O)O [12-azidododecanoic acid] | no nuclear-GFP expression | profound impact on the infectivity of the virus
